This is an account of results in patent US8148392B2, “2-indolyl imidazo [4,5-d] phenanthroline derivatives and their use in the treatment of cancer” (Lorus Therapeutics Inc., priority 2005, dated 2012).

The subject of test [1] is panel of 60 human cancer cell lines. The test can be described thus: NCI DTP in vitro anticancer screen, panel of 60 human cancer cell lines. The format is cell-based. The method, then:
(§1) For example, the following methodology, which is currently employed by the NCI, can be used to assess the GI50 of a candidate compound of Formula I in the selected cancer cell lines. Briefly, cell suspensions are diluted (5000-40,000 cells per well) and 100 μL of the diluted cell suspension is added into 96-well microtiter plates. Inoculates are allowed a preincubation period of 24 h at 37° C. for stabilization. Dilutions at twice the intended test concentration of the candidate compound are added at time zero in 100 μL aliquots to the microtiter plate wells. Test compounds are generally evaluated at five 10-fold dilutions. In routine testing, the highest well concentration is usually 10E-4 M, but this may be adjusted depending on the compound being tested. The cells are incubated with the test compound for 48 h in 5% CO2 atmosphere and 100% humidity. The cells are then assayed by using the sulforhodamine B assay (see, for example, Skehan, P., et al. (1990) JNCI, J. Natl. Cancer Inst. 82, 1107-1112; and Chen, S. F., et al. (1990) Proc. Am. Assoc. Cancer Res. 31, A2644) employing a plate reader which can be used to read the optical densities.
(§2) Compounds 2 and 3 were evaluated for their antiproliferative effects in a panel of 60 human cancer cell lines as part of the in vitro anticancer screening services provided by the DTP (Developmental Therapeutics Program) of the US National Cancer Institute (NCI).
Analysis of the effects of compounds of Formula I on in vitro and in vivo cell growth inhibition were performed utilizing the methods as described in the preceding Examples. As shown in Example 12, cell growth inhibition by the parental compound 3 was screened by National Cancer Institute 60-cell line assay and leukemia, non-small cell cancer, colon cancer, renal cancer and prostate cancer panels were especially sensitive to compound 3.

The test system of test [2] is CCRF-CEM leukemia cell line. Nature of the test: NCI DTP in vitro screen, CCRF-CEM. The format is cell-based. Conditions: Homo sapiens. The procedure:
as §1, with “The cells are incubated with the test compound for 48 h in 5% CO2 atmosphere and 100% humidity.” left out
as §2

Test [3] relates to K-562 leukemia cell line. The test can be described thus: NCI DTP in vitro screen, K-562. The format is cell-based, human. Conditions: K-562, in words. The procedure: as §1, with “The cells are incubated with the test compound for 48 h in 5% CO2 atmosphere and 100% humidity.” left out
as §2

Test [4] relates to supercoiled plasmid DNA. Nature of the test: In vitro DNA cleavage assay. It is filed as biochemical. The procedure:
Compound 3 was tested for its ability to cleave plasmid DNA in vitro in the presence of copper and the reducing agent ascorbic acid. Experiments were performed in a total of 20 μl, containing 10 mM NaH2PO4/Na2HPO4 buffer (pH 6.7), 1 μg of supercoiled plasmid DNA, 100 μM ascorbic acid, 25 μM drug compound (or vehicle), and 10 μM of CuSO4.5H20. The reaction mixture was incubated at 37° C. for 30 minutes, and 1 μl of 0.1 M EDTA was added to terminate the reaction. DNA loading buffer was added, and reactions were run at 80V for 80 minutes on a 1% agarose gel containing ethidium bromide.
To determine whether ions other than copper could suffice, DNA cleavage reactions were also carried out in the presence of zinc or iron. Reactions were performed as above, in the presence of 25 μM of CuSO4.5H20, ZnCl2, or FeCl2.4H20. […] Note that copper alone in the presence of ascorbic acid can shift the ratio of supercoiled DNA to open circular DNA.
To determine the ratios of compound to copper at which compound 3 was effective, reactions were performed as in FIG. 22A. The ratios of compound 3 to copper of 3:1, 2.5:1, 2:1, 1.5:1, and 1:1, as shown in FIG. 23 were achieved by maintaining the concentration of Cu constant at 10 μM, and varying the concentration of compound 3. The ratios of compound 3 to Cu of 1:1.5, 1:2, 1:2.5, and 1:3, were achieved by maintaining the concentration of compound 3 constant at 10 μM, and varying the concentration of copper.
Other compounds of Formula I, compounds 5, 7, 9 and 13 were also tested for their ability to cleave DNA at a ratio of 2.5:1 to copper (FIG. 23). Ratios of compound 3:copper as indicated, plus concentrations of copper in the absence of compound 3 were used in the DNA cleavage assay as described above.

Test [5] concerns Sp1. Nature of the test: Sp1 binding to Cyclin D1 promoter, ChIP, HT-29. The format is cell-based, human. Conditions: HT-29, ChIP. The procedure:
Based on overlapping transcription factor binding sites on Cyclin D1 gene promoter region (FIG. 33A), increased binding of a negative regulator KLF4 may replace the binding of a positive regulator Sp1. In vivo KLF4 and Sp1 binding to Cyclin D1 promoter was shown by chromatin immuno-precipitation assay (ChIP) (FIG. 33B).
Chromatin immunoprecipitation (ChIP) was performed as follows. Cell lysates from HT-29 cells (5.5×10^5 cells in three 15 cm-culture plates in each experimental group) were prepared at the end of the indicated experiments, and ChIP assays were performed using anti-KLF4 and anti-Sp1 antibodies (Santa Cruz Biotechnology Inc.) and ChIP-ITTM kit (Active Motif, Carlsbad, Calif.) by following the manufacturer's instruction. The primers encompassing-231 to -92 region of Cyclin D1 promoter; 5′ primer (5′-CGGACTACAGGGGCAA-3′) [SEQ ID NO:1] and 3′ primer (5′-GCTCCAGGACTTTGCA-3′) [SEQ ID NO:2] were synthesized at Invitrogen.

For test [6], the system named is Egr-1. The test can be described thus: Egr-1 gene expression in HT-29 cells, RT-PCR. It is filed as cell-based, human. The method, then:
Like Sp1, Egr-1 also is a transcription factor with zinc finger DNA-binding domains, which recognizes GC-rich sequences in the regulatory promoter region of the targeted gene (Al-Sarraj et al., (2005) J. Cell Biochem. 94(1): 153-167). Changes in Egr-1 gene expression were detected in compound 3-treated HT-29 cells by RT-PCR (FIG. 44A) as follows. HT-29 cells were treated with 1 μM compound 3 for the indicated times. Total RNA was extracted and gene expression level was determined by RT-PCR. To determine the effects of zinc supplement, HT-29 cells were treated with 1 μM compound 3, 35 μM ZnCl2 or compound 3 and ZnCl2 together for 8 hr. Egr-1 gene expression was determined by RT-PCR (FIG. 44B).

Test [7] relates to Cyclin E. Nature of the test: Cyclin E protein in HT-29 cells, Western blotting. It is filed as cell-based, human. Conditions: HT-29, 1 μM. In general terms: Immunoblotting shows a protein as a band on a membrane.

Read-outs that look alike come from different tables or passages of the source. Some results are limits rather than exact numbers.

As to `Cc1[nH]c2ccccc2c1-c1nc2c3cccnc3c3ncccc3c2[nH]1` [Compound 3], the GI50 in test [1] (Homo sapiens, NCI 60-cell line assay, read-out: average GI50 of all cell lines tested) was 620 nM; in test [1] (Homo sapiens, span of average values in the NCI panel (FIG. 2), read-out: GI50 average values) it was 610 to 12300 nM; in test [1] (average over human tumour cell lines of the NCI panel (FIG. 1), read-out: average GI50 (growth inhibition by 50%)), below 2000 nM; in test [2], 30 nM; in test [3], “nanomolar range”. The “selectivity among cancer types of the NCI panel” value in test [1] (in words) was “selective inhibitor of colon, leukemia, non-small cell lung cancer, and prostate cell lines”. The “cleavage of plasmid DNA” value in test [4] (25 μM ZnCl2 or FeCl2 instead of copper) was “Neither zinc nor iron was able to replace copper”; in test [4] (25 μM compound, 10 μM CuSO4, 100 μM ascorbic acid, 37° C., 30 minutes), “able to cleave plasmid DNA”; in test [4] (absence of copper or reducing agent), “Neither compound 3 nor OP was able to cleave DNA”; in test [4] (ratio compound to copper 1:3), “able to cleave at a ratio of 1:3”; in test [4] (ratios compound to copper 1:1, 1:2, 1:2.5), “unable to cleave”. Moreover, the “Sp1 binding to Cyclin D1 promoter” value in test [5] is on record as “decreased Sp1 binding”. For the same compound, the “Egr-1 expression change with zinc supplement” value in test [6] (HT-29, 1 μM compound plus 35 μM ZnCl2, 8 hr) is “reversible upon addition of zinc supplement”. The Egr-1 gene expression entry in test [6] (HT-29, 1 μM, as early as 2 hr) was “significant increase in Egr-1 gene expression”. The “Cyclin E expression” value in test [7] is recorded as “decreased expression of Cyclin E”.

A word on the GI50: it is the concentration giving 50% growth inhibition.
